In ChEMBL document CHEMBL5537183, “Discovery, Optimization, and Biological Evaluation of Arylpyridones as Cbl-b Inhibitors” (J Med Chem, 2024):

Assays:
[1] = target: T1, E3 ubiquitin-protein ligase CBL-B (Homo sapiens, UniProt Q13191); test: Inhibition of biotinylated recombinant Cbl-b (36 to 427 residues)(unknown origin) expressed in Escherichia coli BL21(DE3) Tuner cells using a FAM-labeled probe by TR-FRET assay
[2] = target: E3 ubiquitin-protein ligase CBL (Homo sapiens, UniProt P22681); test: Inhibition of cCbl (unknown origin) by TR-FRET assay
[3] = Lipophilicity, logD of compound at pH 7.4; type: physicochemical; conditions: buffer
[4] = Stability in human liver microsome assessed as intrinsic clearance; type: ADME; conditions: liver microsomes, read-out: CLH
[5] = Induction of IL-2 production in human T cells; type: functional, cell-based, T-cell
[6] = Clearance in rat hepatocytes assessed as measured per million cells at 0.1 to 1 uM measured for 120 mins by LC-MS/MS analysis; type: ADME, cell-based, Hepatocyte; conditions: dose 0.1-1 µM
[7] = Clearance in human hepatocytes assessed as measured per million cells at 0.1 to 1 uM measured for 120 mins by LC-MS/MS analysis; type: ADME, cell-based, Hepatocyte; conditions: dose 0.1-1 µM, read-out: CLH
[8] = Clearance in CD1 mouse at 0.5 mg/kg, iv measured for 24 hrs by LC-MS/MS analysis; type: ADME, organism-based; conditions: in vivo
[9] = Volume of distribution at steady state in CD1 mouse at 0.5 mg/kg, iv measured for 24 hrs by LC-MS/MS analysis; type: ADME, organism-based; conditions: in vivo, read-out: Vdss
[10] = Half life in CD1 mouse at 0.5 mg/kg, iv measured for 24 hrs by LC-MS/MS analysis; type: ADME, organism-based; conditions: in vivo
[11] = Cmax in CD1 mouse at 1 mg/kg, po measured for 24 hrs by LC-MS/MS analysis; type: ADME, organism-based; conditions: in vivo
[12] = Tmax in CD1 mouse at 1 mg/kg, po measured for 24 hrs by LC-MS/MS analysis; type: ADME, organism-based; conditions: in vivo
[13] = AUC (infinity) in CD1 mouse at 1 mg/kg, po measured for 24 hrs by LC-MS/MS analysis; type: ADME, organism-based; conditions: in vivo
[14] = Oral bioavailability in CD1 mouse at 1 mg/kg measured for 24 hrs by LC-MS/MS analysis; type: ADME, organism-based; conditions: in vivo
[15] = Clearance in Wistar Han rat at 0.5 mg/kg, iv measured for 24 hrs by LC-MS/MS analysis; type: ADME, organism-based; conditions: in vivo
[16] = Volume of distribution at steady state in Wistar Han rat at 0.5 mg/kg, iv measured for 24 hrs by LC-MS/MS analysis; type: ADME, organism-based; conditions: in vivo, read-out: Vdss
[17] = Half life in Wistar Han rat at 0.5 mg/kg, iv measured for 24 hrs by LC-MS/MS analysis; type: ADME, organism-based; conditions: in vivo
[18] = Cmax in Wistar Han rat at 1 mg/kg, po measured for 24 hrs by LC-MS/MS analysis; type: ADME, organism-based; conditions: in vivo
[19] = Tmax in Wistar Han rat at 1 mg/kg, po measured for 24 hrs by LC-MS/MS analysis; type: ADME, organism-based; conditions: in vivo
[20] = AUC (infinity) in Wistar Han rat at 1 mg/kg, po measured for 24 hrs by LC-MS/MS analysis; type: ADME, organism-based; conditions: in vivo
[21] = Oral bioavailability in Wistar Han rat at 1 mg/kg measured for 24 hrs by LC-MS/MS analysis; type: ADME, organism-based; conditions: in vivo
[22] = target: T1, E3 ubiquitin-protein ligase CBL-B; test: Inhibition of biotinylated recombinant Cbl-b (36 to 427 residues)(unknown origin) expressed in Escherichia coli BL21(DE3) Tuner cells assessed as decrease in Cbl-b auto-ubiquitination incubated for 60 mins in presence of Ub-FITC/ATP by TR-FRET assay
[23] = target: T1, E3 ubiquitin-protein ligase CBL-B; test: Inhibition of biotinylated recombinant Cbl-b (36 to 427 residues)(unknown origin) expressed in Escherichia coli BL21(DE3) Tuner cells assessed as decrease in ZAP70 ubiquitination incubated for 60 mins in presence of Ub-FITC/ATP by TR-FRET assay

T1 sequence (Q13191 whole entry, the tested form may be a part): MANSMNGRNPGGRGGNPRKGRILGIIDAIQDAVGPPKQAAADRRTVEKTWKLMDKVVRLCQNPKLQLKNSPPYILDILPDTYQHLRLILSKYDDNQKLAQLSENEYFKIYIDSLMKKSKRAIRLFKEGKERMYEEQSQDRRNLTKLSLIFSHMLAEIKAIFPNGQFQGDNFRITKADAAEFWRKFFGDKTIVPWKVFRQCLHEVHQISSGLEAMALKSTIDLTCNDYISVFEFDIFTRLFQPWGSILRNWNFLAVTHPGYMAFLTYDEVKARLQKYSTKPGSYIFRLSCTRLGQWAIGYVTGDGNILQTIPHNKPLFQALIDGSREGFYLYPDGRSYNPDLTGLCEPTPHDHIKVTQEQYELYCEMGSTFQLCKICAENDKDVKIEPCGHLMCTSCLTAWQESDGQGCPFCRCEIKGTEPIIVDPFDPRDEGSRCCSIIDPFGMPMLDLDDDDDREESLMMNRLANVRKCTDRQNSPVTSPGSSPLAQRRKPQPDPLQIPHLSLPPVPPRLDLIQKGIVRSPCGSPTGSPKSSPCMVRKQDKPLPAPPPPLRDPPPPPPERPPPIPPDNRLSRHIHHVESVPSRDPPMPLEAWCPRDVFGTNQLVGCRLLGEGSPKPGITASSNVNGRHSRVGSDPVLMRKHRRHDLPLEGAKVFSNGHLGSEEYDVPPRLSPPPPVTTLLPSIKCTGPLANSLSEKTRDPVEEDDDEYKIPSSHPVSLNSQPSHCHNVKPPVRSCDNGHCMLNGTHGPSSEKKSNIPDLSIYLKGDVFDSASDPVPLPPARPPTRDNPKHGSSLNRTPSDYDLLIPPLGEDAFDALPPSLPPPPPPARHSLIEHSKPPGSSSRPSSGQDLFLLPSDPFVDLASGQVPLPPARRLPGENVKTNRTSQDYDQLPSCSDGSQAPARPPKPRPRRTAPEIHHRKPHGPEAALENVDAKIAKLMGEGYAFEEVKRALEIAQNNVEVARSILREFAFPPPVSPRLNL

Cc1nnc(Cn2cc(C(F)(F)F)cc(-c3cccc([C@]4(c5nncn5C)C[C@@H](C)C4)c3)c2=O)o1
IC50 [1]: 70 nM | IC50 [2]: 330 nM | logD [3]: 1.7 | microsomal CLint [4]: 29 µL/min/mg | EC50 ([5]; Homo sapiens, T-cell): 2860 nM | hepatocyte CLint at up to 1 µM [6]: 7.8 µL/min/1e6 cells | hepatocyte CLint at up to 1 µM [7]: 1.7 µL/min/1e6 cells

Cn1cnnc1[C@]1(c2cccc(-c3cc(OC(F)(F)F)c[nH]c3=O)c2)C[C@H](C)C1
IC50 [1]: 310 nM | IC50 [2]: 1700 nM | logD [3]: 2.6 | microsomal CLint [4]: 3 µL/min/mg

Cn1cnc(Cn2cc(C(F)(F)F)cc(-c3cccc([C@]4(c5nncn5C)C[C@@H](C)C4)c3)c2=O)c1
IC50 [1]: 50 nM | IC50 [2]: 190 nM | logD [3]: 2.4 | microsomal CLint [4]: 130 µL/min/mg | EC50 ([5]; Homo sapiens, T-cell): 2530 nM | hepatocyte CLint at up to 1 µM [6]: 32 µL/min/1e6 cells

C[C@@H](C#N)n1cc(C(F)(F)F)cc(-c2cccc([C@]3(c4nncn4C)C[C@@H](C)C3)c2)c1=O
IC50 [1]: 40 nM | IC50 [2]: 50 nM | logD [3]: 2.2 | microsomal CLint [4]: 85 µL/min/mg | EC50 ([5]; Homo sapiens, T-cell): 440 nM | hepatocyte CLint at up to 1 µM [6]: 12 µL/min/1e6 cells

Cn1cc(Cn2cc(C(F)(F)F)cc(-c3cccc([C@]4(c5nncn5C)C[C@@H](C)C4)c3)c2=O)nn1
IC50 [1]: 30 nM | IC50 [2]: 40 nM | logD [3]: 2.3 | microsomal CLint [4]: 79 µL/min/mg | EC50 ([5]; Homo sapiens, T-cell): 1680 nM | hepatocyte CLint at up to 1 µM [6]: 8.1 µL/min/1e6 cells

Cc1c[nH]c(=O)c(-c2cccc([C@]3(c4nncn4C)C[C@@H](C)C3)c2)c1
IC50 [1]: 1470 nM | IC50 [2]: 6300 nM | logD [3]: 2.6 | microsomal CLint [4]: 3 µL/min/mg

Cn1cnnc1[C@]1(c2cccc(-n3cc(C(F)(F)F)ccc3=O)c2)C[C@H](C)C1
IC50 [1]: 2100 nM | IC50 [2]: 10300 nM | logD [3]: 1.6 | microsomal CLint [4]: 15 µL/min/mg

Cn1cnnc1[C@]1(c2cccc(-c3cc(C(F)(F)F)c[nH]c3=O)c2)C[C@H](C)C1
IC50 [1]: 84 nM | IC50 [2]: 580 nM | logD [3]: 3.58 | microsomal CLint [4]: 2.5 µL/min/mg | hepatocyte CLint at up to 1 µM [6]: 16 µL/min/1e6 cells

COc1c[nH]c(=O)c(-c2cccc([C@]3(c4nncn4C)C[C@@H](C)C3)c2)c1
IC50 [1]: 2680 nM | IC50 [2]: 11600 nM | logD [3]: 1.5 | microsomal CLint [4]: 9.7 µL/min/mg

Cn1cnnc1C1(c2cccc(-c3cc(C(F)(F)F)c[nH]c3=O)c2)CCC1
IC50 [1]: 340 nM | IC50 [2]: 2200 nM | logD [3]: 2.1 | microsomal CLint [4]: 14 µL/min/mg | EC50 ([5]; Homo sapiens, T-cell): 3980 nM

Cn1cnnc1[C@]1(c2cccc(-c3cc(C(F)(F)F)ccc3O)c2)C[C@H](C)C1
IC50 [1]: > 100000 nM | IC50 [2]: > 100000 nM | logD [3]: 4.4 | microsomal CLint [4]: 21 µL/min/mg

CC#CCn1cc(C(F)(F)F)cc(-c2cccc([C@]3(c4nncn4C)C[C@@H](C)C3)c2)c1=O
IC50 [1]: 34 nM | IC50 [2]: 160 nM | logD [3]: 3.3 | microsomal CLint [4]: 76 µL/min/mg | EC50 ([5]; Homo sapiens, T-cell): 850 nM | hepatocyte CLint at up to 1 µM [6]: 21 µL/min/1e6 cells

CN1CC[C@H](Cn2cc(C(F)(F)F)cc(-c3cccc([C@]4(c5nncn5C)C[C@@H](C)C4)c3)c2=O)C1
IC50 [1]: 50 nM | IC50 [2]: 330 nM | logD [3]: 1.1 | microsomal CLint [4]: 13 µL/min/mg | EC50 ([5]; Homo sapiens, T-cell): 10800 nM | hepatocyte CLint at up to 1 µM [6]: 2.4 µL/min/1e6 cells

Cn1cc(C(F)(F)F)c2cc(-c3cccc([C@]4(c5nncn5C)C[C@@H](C)C4)c3)c(=O)[nH]c21
IC50 [1]: 190 nM | IC50 [2]: 860 nM | logD [3]: 3.8 | microsomal CLint [4]: 83 µL/min/mg

Cn1cnnc1[C@]1(c2cccc(-c3cc(C4CC4)c[nH]c3=O)c2)C[C@H](C)C1
IC50 [1]: 360 nM | IC50 [2]: 1340 nM | logD [3]: 2.4 | microsomal CLint [4]: 29 µL/min/mg

Cn1cnnc1[C@@H](c1cccc(-c2cc(C(F)(F)F)c[nH]c2=O)c1)C1CCC1 (racemic)
IC50 [1]: 59 nM | IC50 [2]: 410 nM | logD [3]: 2.5 | microsomal CLint [4]: 25 µL/min/mg | EC50 ([5]; Homo sapiens, T-cell): 5290 nM

C[C@H](c1cnn(C)c1)n1cc(C(F)(F)F)cc(-c2cccc([C@]3(c4nncn4C)C[C@@H](C)C3)c2)c1=O
logD [3]: 2.9 | microsomal CLint [4]: 220 µL/min/mg | EC50 ([5]; Homo sapiens, T-cell): 590 nM | hepatocyte CLint at up to 1 µM [6]: 21 µL/min/1e6 cells

Cn1cnnc1C[C@]1(c2cccc(-c3cc(C(F)(F)F)c[nH]c3=O)c2)C[C@H](C#N)C1
IC50 [1]: 160 nM | IC50 [2]: 960 nM | logD [3]: 1.1 | microsomal CLint [4]: 6.8 µL/min/mg | EC50 ([5]; Homo sapiens, T-cell): > 30000 nM

C[C@@H](c1cnn(C)c1)n1cc(C(F)(F)F)cc(-c2cccc([C@]3(c4nncn4C)C[C@@H](C)C3)c2)c1=O
logD [3]: 2.8 | microsomal CLint [4]: 160 µL/min/mg | EC50 ([5]; t-cell): 230 nM | hepatocyte CLint at up to 1 µM [6]: 6.4 µL/min/1e6 cells | hepatocyte CLint at up to 1 µM [7]: 8.7 µL/min/1e6 cells | clearance [8]: 100 mL/min/kg | Vd [9]: 1.3 L/kg | half-life [10]: 18 min | Cmax [11]: 35 ng/mL | Tmax [12]: 4.98 min | AUC(0-inf) [13]: 30 ng·h/mL | bioavailability [14]: 19% | clearance [15]: 55 mL/min/kg | Vd [16]: 1.6 L/kg | half-life [17]: 27 min | Cmax [18]: 21 ng/mL | Tmax [19]: 45 min | AUC(0-inf) [20]: 46 ng·h/mL | bioavailability [21]: 15%

CN1CCC(Cn2cc(C(F)(F)F)cc(-c3cccc([C@]4(c5nncn5C)C[C@@H](C)C4)c3)c2=O)CC1
IC50 [1]: 74 nM | IC50 [2]: 460 nM | logD [3]: 1.3 | microsomal CLint [4]: 47 µL/min/mg | EC50 ([5]; Homo sapiens, T-cell): 16700 nM | hepatocyte CLint at up to 1 µM [6]: 13 µL/min/1e6 cells

C[C@@H](COCCC(=O)N1CCN2c3ncc(C(F)(F)F)cc3NC(=O)C2C1)Nc1cn[nH]c(=O)c1C(F)(F)F (stereo partly drawn)
IC50 [22]: 30.7 nM | IC50 [23]: 26.9 nM

Cn1cc(Cn2cc(C(F)(F)F)cc(-c3cccc([C@]4(c5nncn5C)C[C@@H](C)C4)c3)c2=O)cn1
IC50 [1]: 40 nM | IC50 [2]: 200 nM | logD [3]: 2.7 | microsomal CLint [4]: 200 µL/min/mg | EC50 ([5]; Homo sapiens, T-cell): 3000 nM | hepatocyte CLint at up to 1 µM [6]: 9.7 µL/min/1e6 cells

Cn1cnnc1[C@]1(c2cccc(-c3nc(C(F)(F)F)c[nH]c3=O)c2)C[C@H](C)C1
IC50 [1]: 890 nM | IC50 [2]: 6550 nM | logD [3]: 2.1 | microsomal CLint [4]: 15 µL/min/mg

CC#C[C@H](C)n1cc(C(F)(F)F)cc(-c2cccc([C@]3(c4nncn4C)C[C@@H](C)C3)c2)c1=O
IC50 [1]: 30 nM | IC50 [2]: 40 nM | logD [3]: 3.9 | microsomal CLint [4]: 190 µL/min/mg | EC50 ([5]; Homo sapiens, T-cell): 460 nM | hepatocyte CLint at up to 1 µM [6]: 24 µL/min/1e6 cells

Cn1cc(C(F)(F)F)cc(-c2cccc([C@]3(c4nncn4C)C[C@@H](C)C3)c2)c1=O
IC50 [1]: 145 nM | IC50 [2]: 880 nM | logD [3]: 2.4 | microsomal CLint [4]: 37 µL/min/mg | EC50 ([5]; Homo sapiens, T-cell): 5890 nM | hepatocyte CLint at up to 1 µM [6]: 16 µL/min/1e6 cells
